Measured values reported in patent US12366579B2, “Sulfur-heterocycle exchange chemistry and uses thereof” (University of Virginia Patent Foundation, priority 2019, dated 2025).
One block for each compound: values may come before it.

Columns and labels:
[1] = HPLC assay for solution reactivity of sulfonyl triazole fragments with p-cresol; type: physicochemical; conditions: for solution reactivity with p-cresol: HPLC assay, TMG base; for time to completion of reaction with p-cresol: TMG 1.1 equivalents, on ice
Procedure: HPLC Assay for Profiling Solution Reactivity and Stability of Sulfonyl Triazole Fragments
The following reagents were prepared and stored on ice prior to use. 0.1 M solution of caffeine in acetonitrile, 1.0 M solution of n-butylamine, p-cresol, tetramethylguanidine […], 1 M HOAc in ACN and 10 mM solution of SuTEx fragment in DMF-ACN mixture (10:90, v/v). 500 μL of fragment solution was transferred to a dram vial on ice. To the mixture, 5.5 μL of TMG and 5.5 μL of p-cresol or n-butylamine was added and solutions were stirred on ice for 6 h. To monitor reactivity, 50 μL aliquots were removed at indicated time points and quenched with 10 μL of a 1:1 mixture of caffeine and HOAc. Samples were injected (1 μL) and analyzed by reverse-phase HPLC on a Shimadzu 1100 Series spectrometer (Shimadzu, Kyoto, Japan) with UV detection at 254 nm. Reaction progress was evaluated by monitoring consumption of starting material (SuTEx fragment) normalized to caffeine standard. Chromatographic separation was performed using a Phenomenex Kinetex C18 column (2.6 μm, 50×4.6 mm) (Phenomenex, Torrance, California, United States of America). Mobile phases A and B were composed of H2O+0.1% HOAc and ACN+0.1% HOAc, respectively. Samples were analyzed using the following analytical conditions: using a flow rate of 0.8 ml min^−1, the gradient was as follows: 0-0.5 min, 15% B; 0.5-6.5 min 85% B; 6.5-7 min 100% B: 7-8.5 min 100% B; 8.5-9 min 15% B; 9-9.8 min 15% B.

[2] = test system: HEK293T soluble proteomes; test: LC-MS chemical proteomics of probe-modified sites in cell proteomes; type: binding, human; conditions: for unique-modified tyrosine sites among 1,2,4-SuTEx probes: FIG. 4D; for tyrosine specificity, Y/K ratio of modified sites: LC-MS chemical proteomics
Procedure: Proteomes were diluted to 2.3 mg/mL in PBS and sample aliquots (432 μL) were treated with sulfonyl-triazole or -fluoride probes at the indicated concentrations (5 μL, 100× stock in DMSO), mixed gently and incubated for 1 h at room temperature. Probe-modified proteomes were subjected to CuAAC conjugation to desthiobiotin-PEG3-azide (10 μL of 10 mM stock in DMSO; final concentration of 200 μM) using TCEP (10 μL of fresh 50 mM stock in water; 1 mM final concentration), TBTA ligand (33 μL of a 1.7 mM 4:1 t-butanol/DMSO stock, 100 μM final concentration), and CuSO4 (10 μL of 50 mM stock, 1 mM final concentration). Samples were mixed by vortexing and then incubated for 1 h at room temperature. Excess reagents were removed by chloroform-methanol extraction as previously described^51. Protein pellets were re-suspended in 500 μL of 6M urea/25 mM ammonium bicarbonate followed by DTT reduction and IAA alkylation as previously described^5. Excess reagents were removed by chloroform/methanol extraction as described above, and the protein pellet was re-suspended in 500 μL of 25 mM ammonium bicarbonate and then digested to peptides using trypsin/Lys-C (7.5 μg in 15 μL of ammonium bicarbonate, sequencing grade from Promega, Madison, Wisconsin, United States of America) was added to the mixture and incubated for 3 hrs at 37° C. Probe-modified peptides were enriched by avidin affinity chromatography, eluted, and prepared for LC-MS analysis as previously described^51.
A top 10 data-dependent acquisition MS method was used.
Sulfonyl-probe modifications of tyrosine, lysine, and other amino acids were included as a variable (common) modification of +635.27374 Da. […] A Byonic score of 300 was applied for a more inclusive initial evaluation of the search results and thereby consider more possible probe-modified sites. MS1 and MS2 spectra corresponding to the highest-scoring tyrosine- and lysine (internal or non-C terminal)-modified sequences (˜50-100 peptides) were manually verified. […] Distinct peptides containing probe-modified amino acid residues (termed sites) were determined by identifying all unique razor protein and site combinations across all of the proteomes tested.
To compare amino acid residues modified by sulfonyl probes, protein and peptide identifications were accomplished as described above with variable (common) modification of +635.27374 Da on the following amino acid residues: cysteine, aspartic acid, glutamic acid, histidine, lysine, methionine, asparagine, glutamine, arginine, serine, threonine, tryptophan, and tyrosine. For these amino acid comparisons, carbamidomethylation (+57.021464 Da) of cysteines was searched as a variable/common modification to allow for the potential of probe modification on cysteines. Comparisons of probe-modified sites across all probes and cell lines tested were performed using the R package ggplot2 (online at tidyverse.org). Venn diagrams for comparisons were generated using the VennDiagram R package^52.
Proteomes were digested with trypsin protease and desthiobiotin-modified peptides enriched by avidin affinity chromatography, released, and analyzed by high-resolution liquid chromatography-mass spectrometry (LC-MS). Probe-modified peptide-spectrum matches (PSMs) that met a quality control confidence criteria of ≥300 Byonic score^31 and ≤5 ppm mass accuracy were selected for further manual evaluation.

[3] = molecular target: T1, human DPP3 (hDPP3) (Homo sapiens, UniProt Q9NY33); test: Gel-based competitive chemical proteomic screen with HHS-482, recombinant hDPP3-HEK293T soluble proteomes; type: binding; conditions: 50 μM fragment, 37° C., 30 min
T1 construct: FLAG (C); host or cells: HEK293T, transient transfection; soluble proteome used unpurified
T1 sequence (Q9NY33 1-737): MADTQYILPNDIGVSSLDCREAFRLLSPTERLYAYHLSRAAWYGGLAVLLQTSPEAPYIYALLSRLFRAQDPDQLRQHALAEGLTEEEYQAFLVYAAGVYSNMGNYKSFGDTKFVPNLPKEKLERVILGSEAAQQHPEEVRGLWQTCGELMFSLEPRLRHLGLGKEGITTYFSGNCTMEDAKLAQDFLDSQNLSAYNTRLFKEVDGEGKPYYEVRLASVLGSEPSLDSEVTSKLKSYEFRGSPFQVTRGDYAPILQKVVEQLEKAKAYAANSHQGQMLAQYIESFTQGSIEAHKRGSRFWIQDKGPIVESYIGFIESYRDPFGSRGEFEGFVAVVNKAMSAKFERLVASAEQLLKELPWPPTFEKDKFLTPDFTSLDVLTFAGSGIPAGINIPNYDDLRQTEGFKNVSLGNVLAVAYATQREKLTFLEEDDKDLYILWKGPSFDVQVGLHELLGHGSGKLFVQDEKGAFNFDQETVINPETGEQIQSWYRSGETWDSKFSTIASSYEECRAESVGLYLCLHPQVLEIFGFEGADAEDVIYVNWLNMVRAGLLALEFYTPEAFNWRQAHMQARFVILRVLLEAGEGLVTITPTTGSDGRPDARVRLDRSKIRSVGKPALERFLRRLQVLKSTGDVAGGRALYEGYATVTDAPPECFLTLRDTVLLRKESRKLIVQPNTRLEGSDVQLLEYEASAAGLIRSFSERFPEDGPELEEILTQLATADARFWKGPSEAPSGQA
Procedure: Gel-Based Chemical Proteomic Assay
Cell pellets were lysed in PBS and fractionated (100,000×g, 45 min, 4° C.) to generate soluble and membrane fractions. Protein concentrations were determined using Bio-Rad DC protein assay (Bio-Rad Laboratories, Inc., Hercules, California, United States of America), and adjusted to 1 mgml^−1 in PBS. Proteome samples (49 μl aliquots) were treated with DMSO vehicle or indicated concentration of SuTEx fragment (1 μL, 50× stock in DMSO) for 30 min at 37° C. Samples were then treated with HHS-482 probe (1 μL, 2.5 mM stock in DMSO) for 30 min at 37° C. Probe labeled samples were conjugated to rhodamine-azide (1 μL, 1.25 mM stock; final concentration of 25 μM) by copper-catalyzed azide-alkyne cycloadditions (CuAAC) for 1 h at room temperature followed by SDS-PAGE and in-gel fluorescence scanning as previously described^57.

[4] = test system: DM93 soluble proteomes; test: Proteome-wide competitive chemical proteomics of SuTEx fragments vs HHS-482; type: binding, human; conditions: fragment 50 μM, 30 min, 37° C.
Procedure: Heavy and light proteomes (432 μl of each) were diluted to 2.3 mg ml^−1 in PBS and sample aliquots (432 μl) were treated with SuTEx fragment at the indicated concentrations (5 μl, 100× stock in DMSO), mixed gently and incubated for 30 min at 37° C. Samples were then treated with HHS-482 (5 μL, 5 mM stock in DMSO) for 30 min at 37° C. Probe-modified proteomes were conjugated to desthiobiotin-PEG3-azide followed by enrichment of probe-modified peptides for nano-electrospray ionization-LC-MS/MS analyses as previously described^57.
The chemical proteomic method for functional tyrosine profiling^72 was tailored to investigate AG/LG effects on SuTEx fragment reactivity in complex proteomes. In brief, isotopically light and heavy soluble proteomes from DM93 melanoma cells cultured by stable isotopic labeling by amino acids in cell culture (SILAC^80) media were used for quantitative liquid chromatography-mass spectrometry (LC-MS) studies. Light and heavy DM93 proteomes were treated with dimethyl sulfoxide (DMSO) vehicle or SuTEx fragment (50 μM, 30 min, 37° C.), respectively, followed by labeling with the tyrosine-reactive probe HHS-482 described hereinabove (50 μM, 30 min, 37° C.) and copper-catalyzed azide-alkyne cycloaddition (CuAAC) conjugation of a desthiobiotin-azide enrichment tag. Proteomes were digested with trypsin protease, HHS-482-modified peptides enriched by avidin chromatography and analyzed by high-resolution LC-MS/MS and bioinformatics as described hereinabove.
To evaluate substituent effects on proteome activity, reactivity profiles of each respective SuTEx fragment were compared across >1500 total distinct HHS-482-modified tyrosine sites from >650 detected proteins. Fragments were screened across independent biological replicates (n=2-3) and high-quality tyrosine site annotations were identified by detection in at least a single biological replicate from each fragment dataset, probe-specific enrichment (HHS-482 probe/DMSO SILAC ratio (SR)>5), and quality control confidence criteria of ≥300 Byonic score^31, […] protein false discovery rate (FDR), and ≤5 ppm mass accuracy in order to minimize the potential for false positives^72. SILAC ratios (SR) from competitive studies (Light-DMSO/Heavy-fragment) were used to identify fragment-competed tyrosine residues as sites showing >75% reduction in enrichment by HHS-482 compared with DMSO vehicle control (i.e. liganded tyrosines, SR>4). In total, 305 liganded tyrosines on 213 distinct proteins were identified, corresponding to ˜30% and ˜44% of total quantified tyrosines and proteins, respectively. […]

Structure (SMILES): COc1ccc(-c2ncn(S(=O)(=O)c3ccc(F)cc3)n2)cc1 [JWB135, 1-((4-Fluorophenyl)sulfonyl)-3-(4-methoxyphenyl)-1H-1,2,4-triazole]
- solution reactivity with p-cresol [1]: attenuated reactivity

Structure (SMILES): C#CCNC(=O)c1ccc(S(=O)(=O)n2cnc(-c3ccccc3)n2)cc1 [HHS-481, 4-((3-Phenyl-1H-1,2,4-triazol-1-yl)sulfonyl)-N-(prop-2-yn-1-yl)benzamide]
- total number of probe-modified sites (Y and K combined) ([2]; FIG. 4A): ~4,000 sites
- unique-modified tyrosine sites among 1,2,4-SuTEx probes [2]: 445 sites
- tyrosine specificity, Y/K ratio of modified sites ([2]; FIG. 4A): 3.5

- blockade of DPP3 probe (HHS-482) labeling [3]: ~50%
Structure (SMILES): O=S(=O)(c1ccc(-c2ccccc2)cc1)n1cnc(-c2ccncc2)n1 [JWB202, 4-(1-([1,1′-Biphenyl]-4-ylsulfonyl)-1H-1,2,4-triazol-3-yl)pyridine]

Structure (SMILES): COc1ccc(-c2ncn(S(=O)(=O)c3cccnc3)n2)cc1 [JWB141, 3-((3-(4-Methoxyphenyl)-1H-1,2,4-triazol-1-yl)sulfonyl)pyridine]
- time to completion of reaction with p-cresol [1]: ~30 min

- competition against recombinant DPP3 ([3]; also substantial proteome cross-reactivity): potent competition
Structure (SMILES): O=S(=O)(c1ccc(F)cc1)n1cnc(-c2ccc(C(F)(F)F)cc2)n1 [JWB150, 1-((4-Fluorophenyl)sulfonyl)-3-(4-(trifluoromethyl)phenyl)-1H-1,2,4-triazole]
- solution reactivity with p-cresol [1]: comparable reaction
- liganded tyrosine frequency (SR>4) [4]: > 25%

Structure (SMILES): COc1ccc(-c2ncn(S(=O)(=O)c3ccc(C#N)cc3)n2)cc1 [JWB137, 4-((3-(4-Methoxyphenyl)-1H-1,2,4-triazol-1-yl)sulfonyl)benzonitrile]
- time to completion of reaction with p-cresol [1]: ~5 min

Structure (SMILES): COc1ccc(-c2ncn(S(=O)(=O)c3ccc(OC)cc3)n2)cc1 [JWB136, 3-(4-Methoxyphenyl)-1-((4-methoxyphenyl)sulfonyl)-1H-1,2,4-triazole]
- solution reactivity with p-cresol [1]: incomplete reaction

Structure (SMILES): C#CCNC(=O)c1ccc(S(=O)(=O)n2cnc(-c3ccc(F)cc3)n2)cc1 [HHS-483, 4-((3-(4-Fluorophenyl)-1H-1,2,4-triazol-1-yl)sulfonyl)-N-(prop-2-yn-1-yl)benzamide]
- proteome reactivity and tyrosine specificity compared with HHS-481 ([2]; FIG. 4A): comparable reactivity and slightly lowered tyrosine specificity
- unique-modified tyrosine sites among 1,2,4-SuTEx probes [2]: 433 sites

Structure (SMILES): C#CCNC(=O)c1ccc(S(=O)(=O)n2cnc(-c3ccc(OC)cc3)n2)cc1 [HHS-482, 4-((3-(4-Methoxyphenyl)-1H-1,2,4-triazol-1-yl)sulfonyl)-N-(prop-2-yn-1-yl)benzamide]
- total number of probe-modified sites (Y and K combined) ([2]; FIG. 4A): ~3,000 sites
- unique-modified tyrosine sites among 1,2,4-SuTEx probes [2]: 112 sites
- tyrosine specificity, Y/K ratio of modified sites ([2]; FIG. 4A): ~5
- fraction of probe-modified residues/peptides assigned to tyrosines ([2]; high confidence sites): ~75%
